Tests used:
[1] = biological target: T1, PLK1 (Homo sapiens, UniProt P53350); experiment: Luciferase assay for PLK1 in HeLa LgBit (Plk1-HiBit KI) cell line; assay type: cell-based; conditions: 300 nM compound, luminescence after 9 hours
T1 construct: endogenous in cells; host or cells: HeLa cells stably expressing LgBit, with CRISPR/Cas9 knock-in of HiBit at the endogenous PLK1 locus
Method: 2. Luciferase Assay for PLK1
(1) Preparation and Culture of HeLa LgBit (Plk1-HiBit KI) Cell Line
A HeLa cell line in which the LgBit vector was transfected and expressed stably was prepared. Then, after constructing gRNA and donor to express the HiBit amino acid sequence behind the C-terminal of the Plk1 gene, which was inherent in the cell, it was inserted into the cell together with a vector capable of expressing CRISPR/Cas9. Only the cells in which the insertion was completed and knock-in had progressed were selected, sub-cultured and used.
(2) Treatment of Compounds of the Present Invention and Method of Luciferase Assay
In the case of HeLa LgBit (Plk1-HiBit KI), the compounds were treated after being released after thymidine block, and the process was as follows. Thymidine (Sigma-Aldrich Cat. No. T9250-5G) was completely dissolved in DW and used in the experiment. For thymidine block, the products were treated with 2 mM of thymidine and then incubated for 24 hours. For release and chemical treatment, the medium was suctioned and washed with 1×PBS. TrypLE™ was added and incubated in 37° C. CO2 incubator for 5 min. Cells neutralized by adding complete media were counted through a counter. For each well of a 96-well culture plate (SPL), 3.3×10^4 cells and a total medium volume of 150 μL were seeded and incubated in a CO2 incubator.
Each cell line was incubated in a CO2 incubator for 18 hours, and Endurazine was added to each well to make up 4% of the total volume. After adding the compound of the present invention in a 96-well white plate (SPL) to a concentration of 300 nM, the wavelength of the plate reader (BMG Labtech, CLARIOstar Plus) was set to […], and then the luminescence was tracked in real time.
The results are shown in Table 2 below and FIGS. 1 and 2.
In Table 2, Activity represents the ratio of the luminescence value of each Exemplary Compound treatment group to DMSO treatment group (+++: <0.3, ++ <0.6, + <0.7).

[2] = test system: H526 cell line; experiment: Cell viability assay for H526 cell line; assay type: cell-based; conditions: Homo sapiens, NCI-H526, 120 h; H526 cells, 5 days, EZ-Cytox, 0.46-3000 nM
Method: 3. Cell Viability Assay for H526 Cell Line
(1) Culture of NCI-H526 Cell Line
(2) Treatment of Compounds of the Present Invention and Method of Cell Viability Assay
After treating the compound to each well to make the total volume of 200 μL, it was cultured in a CO2 incubator (Thermo Fisher Science, Cat. No. 4111) for 5 days.
The absorbance of the completely cultured sample was measured by setting the wavelength of a plate reader (BMG Labtech, CLARIOstar Plus) to […], and was measured after shaking for 3 minutes in a plate reader before measurement.
In Table 3, Activity represents IC50 value of each Exemplary Compound treatment group to H526 cell line (A: <30 nM, B: <50 nM, C: <100 nM, D: <200 nM, E: <400 nM).

T1 sequence (P53350 whole entry): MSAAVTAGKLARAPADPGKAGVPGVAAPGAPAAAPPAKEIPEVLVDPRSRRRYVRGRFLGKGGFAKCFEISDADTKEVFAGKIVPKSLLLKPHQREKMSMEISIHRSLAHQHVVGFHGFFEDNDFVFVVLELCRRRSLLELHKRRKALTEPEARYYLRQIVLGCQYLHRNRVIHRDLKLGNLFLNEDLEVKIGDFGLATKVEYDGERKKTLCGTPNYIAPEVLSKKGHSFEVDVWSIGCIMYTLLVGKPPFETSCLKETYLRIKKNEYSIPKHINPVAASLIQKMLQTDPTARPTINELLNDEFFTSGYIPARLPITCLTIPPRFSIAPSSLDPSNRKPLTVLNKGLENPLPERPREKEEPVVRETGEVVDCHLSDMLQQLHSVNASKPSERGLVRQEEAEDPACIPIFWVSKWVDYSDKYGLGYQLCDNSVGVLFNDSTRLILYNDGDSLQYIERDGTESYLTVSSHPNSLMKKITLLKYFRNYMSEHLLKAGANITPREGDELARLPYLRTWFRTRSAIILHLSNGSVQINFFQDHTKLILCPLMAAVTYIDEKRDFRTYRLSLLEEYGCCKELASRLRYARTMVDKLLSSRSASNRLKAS

In the case of `COc1cc(C(=O)NC2CCC(N(C)CC3CCN(c4ccc(C5CCC(=O)NC5=O)cc4F)CC3)CC2)ccc1Nc1ncc2c(n1)N(C(C)C)CC(F)(F)C(=O)N2C` (centres unmarked) [Compound 8, 4-((7,7-difluoro-9-isopropyl-5-methyl-6-oxo-6,7,8,9-tetrahydro-5H-pyrimido[4,5-b][1,4]diazepin-2-yl)amino)-N-((1s,4s)-4-(((1-(4-(2,6-dioxopiperidin-3-yl)-2-fluorophenyl)piperidin-4-yl)methyl)(methyl)amino)cyclohexyl)-3-methoxybenzamide], the “Activity: ratio of the luminescence value of each Exemplary Compound treatment group to DMSO treatment group” value (“Activity: ratio” for short) [1] is reported as “++ (++ <0.6)”.

In the case of `COc1cc(C(=O)NC2CC3(CCN(CC4CCN(c5ccc(C6CCC(=O)NC6=O)cc5F)CC4)CC3)C2)ccc1Nc1ncc2c(n1)N1CCC[C@@H]1CC(=O)N2C` (stereo partly drawn) [Compound 24, N-(7-((1-(4-(2,6-dioxopiperidin-3-yl)-2-fluorophenyl)piperidin-4-yl)methyl)-7-azaspiro[3.5]nonan-2-yl)-3-methoxy-4-(((R)-5-methyl-6-oxo-6,7,7a,8,9,10-hexahydro-5H-pyrimido[5,4-b]pyrrolo[1,2-d][1,4]diazepin-2-yl)amino)benzamide], the “Activity: ratio” value [1] is reported as “++ (++ <0.6)” and the IC50 [2] is reported as less than 100 nM.

In the case of `COc1cc(C(=O)NC2CC3(CCN(CCC4(C)CCN(c5ccc(C6CCC(=O)NC6=O)cc5F)C4)CC3)C2)ccc1Nc1ncc2c(n1)N(C(C)C)CC(F)(F)C(=O)N2C` (centres unmarked) [Compound 26, 4-((7,7-difluoro-9-isopropyl-5-methyl-6-oxo-6,7,8,9-tetrahydro-5H-pyrimido[4,5-b][1,4]diazepin-2-yl)amino)-N-(7-(2-(1-(4-(2,6-dioxopiperidin-3-yl)-2-fluorophenyl)-3-methylpyrrolidin-3-yl)ethyl)-7-azaspiro[3.5]nonan-2-yl)-3-methoxybenzamide], the “Activity: ratio” value [1] is reported as “++ (++ <0.6)” and the IC50 [2] is reported as less than 30 nM.

For `COc1cc(C(=O)NC2CC3(CCN(C[C@H]4C[C@@H]5C[C@H]4CN5c4ccc(C5CCC(=O)NC5=O)cc4F)CC3)C2)ccc1Nc1ncc2c(n1)N(C(C)C)CC(F)(F)C(=O)N2C` (stereo partly drawn) [Compound 27, 4-((7,7-difluoro-9-isopropyl-5-methyl-6-oxo-6,7,8,9-tetrahydro-5H-pyrimido[4,5-b][1,4]diazepin-2-yl)amino)-N-(7-(((1R,4R,5S)-2-(4-(2,6-dioxopiperidin-3-yl)-2-fluorophenyl)-2-azabicyclo[2.2.1]heptan-5-yl)methyl)-7-azaspiro[3.5]nonan-2-yl)-3-methoxybenzamide], the “Activity: ratio” value [1] was “++ (++ <0.6)” and the IC50 [2] was less than 30 nM.

For `COc1cc(C(=O)NC2CC3(CCN(CC4CCN(c5ccc(C6CCC(=O)NC6=O)cc5F)C(=O)C4)CC3)C2)ccc1Nc1ncc2c(n1)N(C(C)C)CC(F)(F)C(=O)N2C` (centres unmarked) [Compound 28, 4-((7,7-difluoro-9-isopropyl-5-methyl-6-oxo-6,7,8,9-tetrahydro-5H-pyrimido[4,5-b][1,4]diazepin-2-yl)amino)-N-(7-((1-(4-(2,6-dioxopiperidin-3-yl)-2-fluorophenyl)-2-oxopiperidin-4-yl)methyl)-7-azaspiro[3.5]nonan-2-yl)-3-methoxybenzamide], the “Activity: ratio” value [1] was “++ (++ <0.6)” and the IC50 [2] was less than 30 nM.

With `COc1cc(C(=O)NC2CC3(CCN(CCC4CCN(c5ccc(C6CCC(=O)NC6=O)cc5F)CC4)CC3)C2)ccc1Nc1ncc2c(n1)N(C(C)C)CC(F)(F)C(=O)N2C` (centres unmarked) [Compound 29, 4-((7,7-difluoro-9-isopropyl-5-methyl-6-oxo-6,7,8,9-tetrahydro-5H-pyrimido[4,5-b][1,4]diazepin-2-yl)amino)-N-(7-(2-(1-(4-(2,6-dioxopiperidin-3-yl)-2-fluorophenyl)piperidin-4-yl)ethyl)-7-azaspiro[3.5]nonan-2-yl)-3-methoxybenzamide] the “Activity: ratio” value [1] was “++ (++ <0.6)” and the IC50 [2] was less than 30 nM.

`COc1cc(C(=O)NCC2CC3(CCN(CC4CCN(c5ccc(C6CCC(=O)NC6=O)cc5F)CC4)CC3)C2)ccc1Nc1ncc2c(n1)N(C(C)C)CC(F)(F)C(=O)N2C` (centres unmarked) [Compound 30, 4-((7,7-difluoro-9-isopropyl-5-methyl-6-oxo-6,7,8,9-tetrahydro-5H-pyrimido[4,5-b][1,4]diazepin-2-yl)amino)-N-((7-((1-(4-(2,6-dioxopiperidin-3-yl)-2-fluorophenyl)piperidin-4-yl)methyl)-7-azaspiro[3.5]nonan-2-yl)methyl)-3-methoxybenzamide] was tested, and the “Activity: ratio” value [1] was “+++ (+++: <0.3)” and the IC50 [2] was less than 100 nM.

`COc1cc(C(=O)NC2CC3(CCN(CC4CCN(Cc5ccc(C6CCC(=O)NC6=O)cc5F)CC4)CC3)C2)ccc1Nc1ncc2c(n1)N(C(C)C)CC(F)(F)C(=O)N2C` (centres unmarked) [Compound 34, 4-((7,7-difluoro-9-isopropyl-5-methyl-6-oxo-6,7,8,9-tetrahydro-5H-pyrimido[4,5-b][1,4]diazepin-2-yl)amino)-N-(7-((1-(4-(2,6-dioxopiperidin-3-yl)-2-fluorobenzyl)piperidin-4-yl)methyl)-7-azaspiro[3.5]nonan-2-yl)-3-methoxybenzamide] was tested, and the “Activity: ratio” value [1] was “++ (++ <0.6)”.

In the case of `COc1cc(C(=O)NC2CC3(CCN(CC4CCN(c5ccc(C6CCC(=O)NC6=O)c(OC)c5)CC4)CC3)C2)ccc1Nc1ncc2c(n1)N(C(C)C)CC(F)(F)C(=O)N2C` (centres unmarked) [Compound 37, 4-((7,7-difluoro-9-isopropyl-5-methyl-6-oxo-6,7,8,9-tetrahydro-5H-pyrimido[4,5-b][1,4]diazepin-2-yl)amino)-N-(7-((1-(4-(2,6-dioxopiperidin-3-yl)-3-methoxyphenyl)piperidin-4-yl)methyl)-7-azaspiro[3.5]nonan-2-yl)-3-methoxybenzamide], the “Activity: ratio” value [1] is reported as “++ (++ <0.6)”.

For `COc1cc(C(=O)NN2CCC(N3CC4(CCN(c5ccc(C6CCC(=O)NC6=O)cc5F)CC4)C3)CC2)ccc1Nc1ncc2c(n1)N(C(C)C)CC(F)(F)C(=O)N2C` (centres unmarked) [Compound 40, 4-((7,7-difluoro-9-isopropyl-5-methyl-6-oxo-6,7,8,9-tetrahydro-5H-pyrimido[4,5-b][1,4]diazepin-2-yl)amino)-N-(4-(7-(4-(2,6-dioxopiperidin-3-yl)-2-fluorophenyl)-2,7-diazaspiro[3.5]nonan-2-yl)piperidin-1-yl)-3-methoxybenzamide], the “Activity: ratio” value [1] was “++ (++ <0.6)” and the IC50 [2] was less than 30 nM.

`COc1cc(C(=O)NC2CCC(CCN3CCN(c4ccc(C5CCC(=O)NC5=O)cc4F)CC3)CC2)ccc1Nc1ncc2c(n1)N(C(C)C)CC(F)(F)C(=O)N2C` (centres unmarked) [Compound 41, 4-((7,7-difluoro-9-isopropyl-5-methyl-6-oxo-6,7,8,9-tetrahydro-5H-pyrimido[4,5-b][1,4]diazepin-2-yl)amino)-N-((1s,4s)-4-(2-(4-(4-(2,6-dioxopiperidin-3-yl)-2-fluorophenyl)piperazin-1-yl)ethyl)cyclohexyl)-3-methoxybenzamide] was tested, and the “Activity: ratio” value [1] was “++ (++ <0.6)”.

In the case of `COc1cc(C(=O)NN2CCC(CN3CCN(C(=O)c4ccc(OC)c(N5CCC(=O)NC5=O)c4)CC3)CC2)ccc1Nc1ncc2c(n1)N(C(C)C)CC(F)(F)C(=O)N2C` [Compound 51, 4-((7,7-difluoro-9-isopropyl-5-methyl-6-oxo-6,7,8,9-tetrahydro-5H-pyrimido[4,5-b][1,4]diazepin-2-yl)amino)-N-(4-((4-(3-(2,4-dioxotetrahydropyrimidin-1(2H)-yl)-4-methoxybenzoyl)piperazin-1-yl)methyl)piperidin-1-yl)-3-methoxybenzamide], the “Activity: ratio” value [1] is reported as “+ (+ <0.7)”.

With `COc1cc(C(=O)NC2CCN(C3CCN(c4ccc(C5CCC(=O)NC5=O)cc4F)C3)CC2)ccc1Nc1ncc2c(n1)N(C(C)C)CC(F)(F)C(=O)N2C` (centres unmarked) [Compound 59, 4-((7,7-difluoro-9-isopropyl-5-methyl-6-oxo-6,7,8,9-tetrahydro-5H-pyrimido[4,5-b][1,4]diazepin-2-yl)amino)-N-(1-(1-(4-(2,6-dioxopiperidin-3-yl)-2-fluorophenyl)pyrrolidin-3-yl)piperidin-4-yl)-3-methoxybenzamide] the “Activity: ratio” value [1] was “++ (++ <0.6)”.

— patent publication US11939334B2, “Substituted pyrimido[4,5-b][1,4]diazepines as PLK1 degradation inducers” (UPPTHERA, INC., priority 2021, dated 2024)
